The text below walks through data of patent US20180200257A1, “METHODS FOR THE TREATMENT OF INFLAMMATORY DISORDERS” (Galapagos NV, priority 2015, published 2018).

The assay has as its system Subjects With Active Crohn's Disease With Evidence of Mucosal Ulceration. In words: Study 3 - CRP levels (pharmacodynamics). The class given is in vivo, human. The conditions noted are these: 200 mg; week 10; LOCF. The text has this:
Double-Blind, Randomized, Placebo-Controlled, Multi-Centre Study to Investigate the Efficacy and Safety of Compound 1 in Subjects With Active Crohn's Disease With Evidence of Mucosal Ulceration. This is a double-blind, randomized, placebo-controlled, multi-centre Phase 2 study to investigate the efficacy and safety of Compound 1 administered once daily for the treatment of active CD with evidence of mucosal ulceration. The pharmacokinetics (including a PK substudy) and pharmacodynamics of Compound 1 and metabolite in CD will also be characterised. A total of 180 eligible subjects will be randomized to receive Compound 1 or placebo in addition to their stable background treatment (eg, corticosteroids, aminosalicylates, or CD-related antibiotics). The study will consist of 2 parts, with total treatment duration of 20 weeks. Randomization in Part 1 will be stratified according the subject's previous anti-TNF exposure/response, CRP level at Screening, and oral corticosteroid use at visit Day −1. After the first 10 weeks of treatment in Part 1, patients will be re-randomized for Part 2 as shown in the diagram below and will be stratified according to the subject's clinical response, previous anti-TNF exposure/response, and oral corticosteroid use at visit Day -1. [table] CRP determination is available at Quest Diagnostics, Clinical Trials, Quest House, 125-135 Staines Road, Hounslow, Middlesex, TW3 3JB, United Kingdom under Catalogue n#86140. The determination of CRP is made using Immunoturbidimetric assay for the in vitro quantitative determination of CRP in human serum and plasma on Roche/Hitachi cobas c systems, wherein human CRP agglutinates with latex particles coated with monoclonal anti-CRP antibodies. The aggregates are determined turbidimetrically (Eda et al., 1998; Price et al., 1987). Human serum and plasma samples CRP determination was done on a Roche/Hitachi Cobas c 301 c 501/502 system which automatically calculate the analyte concentration of each sample. Samples containing precipitates are centrifuged before performing the assay. CRP levels are determined as previously described in section 3.6

Regarding `O=C(Nc1nc2cccc(-c3ccc(CN4CCS(=O)(=O)CC4)cc3)n2n1)C1CC1` [Compound 1, cyclopropanecarboxylic acid {5-[4-(1,1-dioxo-thiomorpholin-4-ylmethyl)-phenyl]-[1,2,4]triazolo[1,5-a]pyridin-2-yl}-amide], the “Serum CRP mean, % CFB” value was determined as 53%; the “Serum CRP mean, CFB” value was -1.0 mg/L; the “Serum CRP median, % CFB” value is on record as −10%; the “Serum CRP median, CFB” value is -0.4 mg/L. Further, the “Serum CRP normalizing high to normal (<0.80 mg/dL), % subjects normalizing” value was determined as 27%.
